BindingDB's records for doi:10.1016/j.bmcl.2015.03.038 (Bristol Myers Squibb, 2015)

Tests used:
[1] = biological target: Neurogenic locus notch homolog protein 3 (Human, UniProt Q9UM47); experiment: Inhibition of Notch3 intracellular domain fragment transfected in human HeLa cells co-transfected with CBF1-PGL3 luciferase reporter vector by transactivation assay
[2] = biological target: Neurogenic locus notch homolog protein 1 (Homo sapiens, UniProt P46531); experiment: Inhibition of Notch1 intracellular domain fragment transfected in human HeLa cells co-transfected with CBF1-PGL3 luciferase reporter vector by transactivation assay
Chain of Neurogenic locus notch homolog protein 1 (P46531 whole entry, the tested form may be a part): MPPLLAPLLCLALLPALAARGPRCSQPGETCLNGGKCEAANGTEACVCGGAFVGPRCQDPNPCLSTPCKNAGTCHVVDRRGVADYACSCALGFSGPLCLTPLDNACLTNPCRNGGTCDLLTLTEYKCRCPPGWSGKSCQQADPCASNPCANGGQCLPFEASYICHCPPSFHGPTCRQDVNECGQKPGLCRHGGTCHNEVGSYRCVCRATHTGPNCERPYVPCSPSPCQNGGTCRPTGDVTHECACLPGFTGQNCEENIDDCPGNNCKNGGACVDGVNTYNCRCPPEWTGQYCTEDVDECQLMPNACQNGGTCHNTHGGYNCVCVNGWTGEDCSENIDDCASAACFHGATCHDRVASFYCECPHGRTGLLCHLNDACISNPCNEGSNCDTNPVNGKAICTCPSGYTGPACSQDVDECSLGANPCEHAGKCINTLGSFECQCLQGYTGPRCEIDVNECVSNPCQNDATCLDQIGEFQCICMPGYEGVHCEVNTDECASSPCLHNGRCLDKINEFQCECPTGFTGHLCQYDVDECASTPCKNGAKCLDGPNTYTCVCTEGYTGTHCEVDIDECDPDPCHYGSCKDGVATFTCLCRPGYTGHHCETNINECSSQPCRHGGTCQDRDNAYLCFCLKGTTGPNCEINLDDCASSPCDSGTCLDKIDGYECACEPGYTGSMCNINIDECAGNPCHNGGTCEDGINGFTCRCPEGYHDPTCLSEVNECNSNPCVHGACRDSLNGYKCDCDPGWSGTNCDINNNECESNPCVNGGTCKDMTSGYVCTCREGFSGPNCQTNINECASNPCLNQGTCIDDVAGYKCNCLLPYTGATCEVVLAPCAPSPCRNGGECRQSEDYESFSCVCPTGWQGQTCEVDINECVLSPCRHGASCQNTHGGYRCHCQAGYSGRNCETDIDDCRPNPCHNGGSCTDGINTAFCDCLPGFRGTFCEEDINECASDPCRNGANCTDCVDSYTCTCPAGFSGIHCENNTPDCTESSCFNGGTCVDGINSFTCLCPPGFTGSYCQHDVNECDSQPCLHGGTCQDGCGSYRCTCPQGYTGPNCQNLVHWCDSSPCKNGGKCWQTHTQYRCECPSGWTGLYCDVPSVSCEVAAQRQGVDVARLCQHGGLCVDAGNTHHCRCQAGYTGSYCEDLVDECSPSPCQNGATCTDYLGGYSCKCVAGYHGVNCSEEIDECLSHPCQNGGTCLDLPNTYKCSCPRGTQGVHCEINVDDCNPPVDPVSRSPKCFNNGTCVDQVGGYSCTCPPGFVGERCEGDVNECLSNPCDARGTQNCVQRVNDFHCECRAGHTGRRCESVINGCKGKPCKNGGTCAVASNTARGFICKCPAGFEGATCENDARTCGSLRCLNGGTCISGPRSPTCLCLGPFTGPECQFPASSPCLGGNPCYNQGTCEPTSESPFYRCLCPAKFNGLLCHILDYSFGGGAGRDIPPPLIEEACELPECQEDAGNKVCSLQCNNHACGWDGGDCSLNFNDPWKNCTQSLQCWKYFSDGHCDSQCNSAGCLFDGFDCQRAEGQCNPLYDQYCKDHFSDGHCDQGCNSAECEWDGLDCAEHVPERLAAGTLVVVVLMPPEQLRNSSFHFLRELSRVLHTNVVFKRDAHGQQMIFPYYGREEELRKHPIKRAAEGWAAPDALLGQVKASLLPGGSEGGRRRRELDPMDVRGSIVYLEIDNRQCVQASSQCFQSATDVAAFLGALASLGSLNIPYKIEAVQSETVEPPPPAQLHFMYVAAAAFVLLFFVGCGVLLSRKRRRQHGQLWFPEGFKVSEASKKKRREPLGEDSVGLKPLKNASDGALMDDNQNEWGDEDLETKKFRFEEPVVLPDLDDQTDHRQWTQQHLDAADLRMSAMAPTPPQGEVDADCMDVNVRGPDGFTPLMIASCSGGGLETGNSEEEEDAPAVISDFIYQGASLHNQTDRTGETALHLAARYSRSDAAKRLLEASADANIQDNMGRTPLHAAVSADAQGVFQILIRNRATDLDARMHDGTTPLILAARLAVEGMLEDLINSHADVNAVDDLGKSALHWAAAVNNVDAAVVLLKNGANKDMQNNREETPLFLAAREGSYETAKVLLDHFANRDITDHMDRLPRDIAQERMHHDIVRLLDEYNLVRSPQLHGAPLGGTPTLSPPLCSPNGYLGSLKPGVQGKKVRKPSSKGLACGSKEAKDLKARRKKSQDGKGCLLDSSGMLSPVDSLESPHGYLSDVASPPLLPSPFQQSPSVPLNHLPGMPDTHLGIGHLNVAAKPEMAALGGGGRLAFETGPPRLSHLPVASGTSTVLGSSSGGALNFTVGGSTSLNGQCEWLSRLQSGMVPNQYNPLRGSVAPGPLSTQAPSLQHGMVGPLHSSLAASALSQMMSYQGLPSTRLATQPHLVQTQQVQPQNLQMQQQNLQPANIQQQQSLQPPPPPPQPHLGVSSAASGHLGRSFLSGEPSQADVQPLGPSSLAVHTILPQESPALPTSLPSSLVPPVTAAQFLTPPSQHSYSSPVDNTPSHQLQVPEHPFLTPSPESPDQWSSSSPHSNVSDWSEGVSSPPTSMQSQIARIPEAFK

[3] = biological target: Neurogenic locus notch homolog protein 2 (Homo sapiens, UniProt Q04721); experiment: Inhibition of Notch2 intracellular domain fragment transfected in human HeLa cells co-transfected with CBF1-PGL3 luciferase reporter vector by transactivation assay
[4] = biological target: Neurogenic locus notch homolog protein 4 (Homo sapiens, UniProt Q99466); experiment: Inhibition of Notch4 intracellular domain fragment transfected in human HeLa cells co-transfected with CBF1-PGL3 luciferase reporter vector by transactivation assay

Chain of Neurogenic locus notch homolog protein 3 (Q9UM47 whole entry, the tested form may be a part): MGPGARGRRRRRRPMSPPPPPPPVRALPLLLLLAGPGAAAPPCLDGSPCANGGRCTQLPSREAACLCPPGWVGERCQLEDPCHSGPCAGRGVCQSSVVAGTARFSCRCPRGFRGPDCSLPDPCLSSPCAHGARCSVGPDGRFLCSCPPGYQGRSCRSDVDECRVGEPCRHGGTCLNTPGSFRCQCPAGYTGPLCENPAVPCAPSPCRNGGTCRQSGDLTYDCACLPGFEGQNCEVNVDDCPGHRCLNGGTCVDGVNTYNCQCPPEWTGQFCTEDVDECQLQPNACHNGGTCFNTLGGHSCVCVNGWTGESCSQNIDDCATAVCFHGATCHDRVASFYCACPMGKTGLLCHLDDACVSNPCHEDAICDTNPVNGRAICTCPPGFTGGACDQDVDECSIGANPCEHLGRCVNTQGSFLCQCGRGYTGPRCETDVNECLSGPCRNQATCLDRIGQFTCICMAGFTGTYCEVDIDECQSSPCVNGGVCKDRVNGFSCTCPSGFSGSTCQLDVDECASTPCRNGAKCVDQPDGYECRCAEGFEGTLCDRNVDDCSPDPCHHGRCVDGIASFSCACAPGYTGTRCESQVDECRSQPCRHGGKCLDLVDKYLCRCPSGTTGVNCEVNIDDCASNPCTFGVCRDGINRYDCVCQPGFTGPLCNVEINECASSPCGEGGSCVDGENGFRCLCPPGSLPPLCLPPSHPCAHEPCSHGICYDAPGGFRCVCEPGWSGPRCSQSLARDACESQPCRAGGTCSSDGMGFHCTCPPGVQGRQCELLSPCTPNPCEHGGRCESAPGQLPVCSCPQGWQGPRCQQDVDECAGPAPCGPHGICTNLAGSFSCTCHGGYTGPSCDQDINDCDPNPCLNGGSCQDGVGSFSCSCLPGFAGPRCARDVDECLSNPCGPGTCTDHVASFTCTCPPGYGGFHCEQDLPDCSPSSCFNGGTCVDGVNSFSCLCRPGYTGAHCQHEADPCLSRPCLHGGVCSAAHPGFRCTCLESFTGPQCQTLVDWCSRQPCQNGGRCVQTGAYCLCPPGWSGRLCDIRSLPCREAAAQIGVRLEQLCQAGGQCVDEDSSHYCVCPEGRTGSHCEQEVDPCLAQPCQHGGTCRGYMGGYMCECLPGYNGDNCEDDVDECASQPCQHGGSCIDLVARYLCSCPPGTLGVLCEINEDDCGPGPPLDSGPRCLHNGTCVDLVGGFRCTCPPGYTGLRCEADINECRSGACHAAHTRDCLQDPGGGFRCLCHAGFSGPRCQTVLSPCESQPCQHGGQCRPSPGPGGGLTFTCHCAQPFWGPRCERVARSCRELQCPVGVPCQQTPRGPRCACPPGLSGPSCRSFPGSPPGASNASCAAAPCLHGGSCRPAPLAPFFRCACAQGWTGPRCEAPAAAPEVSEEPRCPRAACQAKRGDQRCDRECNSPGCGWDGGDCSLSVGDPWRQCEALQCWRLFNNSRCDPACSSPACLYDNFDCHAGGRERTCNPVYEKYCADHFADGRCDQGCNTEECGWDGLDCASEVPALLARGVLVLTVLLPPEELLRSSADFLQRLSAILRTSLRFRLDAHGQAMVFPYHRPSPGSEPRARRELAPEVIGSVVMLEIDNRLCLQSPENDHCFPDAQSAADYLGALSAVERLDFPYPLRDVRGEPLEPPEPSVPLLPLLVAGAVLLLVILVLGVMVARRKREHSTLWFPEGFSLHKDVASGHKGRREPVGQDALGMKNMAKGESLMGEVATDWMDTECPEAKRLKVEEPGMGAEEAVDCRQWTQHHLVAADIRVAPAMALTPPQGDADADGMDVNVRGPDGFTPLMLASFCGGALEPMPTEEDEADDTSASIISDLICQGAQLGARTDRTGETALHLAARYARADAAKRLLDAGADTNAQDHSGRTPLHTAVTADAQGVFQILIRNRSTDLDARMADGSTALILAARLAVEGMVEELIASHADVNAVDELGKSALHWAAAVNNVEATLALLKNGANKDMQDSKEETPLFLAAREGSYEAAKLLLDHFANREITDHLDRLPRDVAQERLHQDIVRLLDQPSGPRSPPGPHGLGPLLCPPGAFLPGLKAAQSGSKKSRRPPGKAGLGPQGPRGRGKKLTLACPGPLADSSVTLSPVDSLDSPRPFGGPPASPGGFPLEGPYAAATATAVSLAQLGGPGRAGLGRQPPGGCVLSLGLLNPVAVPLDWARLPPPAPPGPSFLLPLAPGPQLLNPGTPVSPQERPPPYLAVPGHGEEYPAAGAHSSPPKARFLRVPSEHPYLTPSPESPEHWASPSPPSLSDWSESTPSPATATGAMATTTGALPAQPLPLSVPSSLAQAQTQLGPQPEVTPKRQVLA

SMILES | IC50 [1] [nM] | IC50 [2] [nM] | IC50 [3] [nM] | IC50 [4] [nM]
Cc1cccc([C@H](C(N)=O)[C@@H](CCC(F)(F)F)C(=O)N[C@H]2N=C(c3ccccc3)c3ccccc3N(C)C2=O)c1 | 1 | 3 |  | 
CN1C(=O)[C@@H](NC(=O)[C@H](CCC(F)(F)F)[C@@H](C(N)=O)c2ccccc2)N=C(c2ccccc2)c2ccccc21 |  |  | 1 | 3
Cc1nocc1[C@H](C(N)=O)[C@@H](CCC(F)(F)F)C(=O)N[C@H]1N=C(c2ccccc2)c2ccccc2N(C)C1=O | 3 | 3 |  | 
Cc1cc([C@H](C(N)=O)[C@@H](CCC(F)(F)F)C(=O)N[C@H]2N=C(c3ccccc3)c3ccccc3N(C)C2=O)no1 | 62 | 54 |  | 
Cc1nc([C@H](C(N)=O)[C@@H](CCC(F)(F)F)C(=O)N[C@H]2N=C(c3ccccc3)c3ccccc3N(C)C2=O)no1 | 119 | 169 |  | 
NC(=O)[C@@H](c1cnoc1)[C@@H](CCC(F)(F)F)C(=O)N[C@H]1N=C(c2ccccc2)c2ccccc2NC1=O | 29 | 32 |  | 
NC(=O)[C@@H](c1cocn1)[C@@H](CCC(F)(F)F)C(=O)N[C@H]1N=C(c2ccccc2)c2ccccc2NC1=O | 161 | 231 |  | 
NC(=O)[C@@H](c1ncon1)[C@@H](CCC(F)(F)F)C(=O)N[C@H]1N=C(c2ccccc2)c2ccccc2NC1=O | 656 | 1190 |  | 
CCC[C@H](C(N)=O)[C@@H](CC(F)(F)F)C(=O)N[C@H]1N=C(c2ccccc2)c2ccccc2N(C)C1=O | 24 | 13 |  | 
CCC(CC)[C@H](C(N)=O)[C@@H](CCC(F)(F)F)C(=O)N[C@H]1N=C(c2ccccc2)c2ccccc2N(C)C1=O | 1 | 1 |  | 
CCC(CC)[C@H](C(N)=O)[C@@H](CC(C)(C)C)C(=O)N[C@H]1N=C(c2ccccc2)c2ccccc2N(C)C1=O | 3 | 3 |  | 
CCC(CC)[C@H](C(N)=O)[C@@H](CC(C)C)C(=O)N[C@H]1N=C(c2ccccc2)c2ccccc2N(C)C1=O |  | 2 |  | 
CN1C(=O)[C@@H](NC(=O)[C@H](CCC(F)(F)F)[C@@H](C(N)=O)c2cc(F)cc(F)c2)N=C(c2ccccc2)c2ccccc21 | 2 | 2 |  | 
CN1C(=O)[C@@H](NC(=O)[C@H](CCC(F)(F)F)[C@@H](C(N)=O)c2ccc(F)cc2F)N=C(c2ccccc2)c2ccccc21 | 1 | 1 |  | 
CN1C(=O)[C@@H](NC(=O)[C@H](CCC(F)(F)F)[C@@H](C(N)=O)c2ccc(F)c(F)c2)N=C(c2ccccc2)c2ccccc21 | 2 | 2 |  | 
CN1C(=O)[C@@H](NC(=O)[C@H](CCC(F)(F)F)[C@@H](C(N)=O)c2ccc(F)cc2)N=C(c2ccccc2)c2ccccc21 | 1 | 2 |  | 
COc1ccc([C@H](C(N)=O)[C@@H](CCC(F)(F)F)C(=O)N[C@H]2N=C(c3ccccc3)c3ccccc3N(C)C2=O)cc1 | 6 | 9 |  | 
CN1C(=O)[C@@H](NC(=O)[C@H](CCC(F)(F)F)[C@@H](C(N)=O)c2cccc(S(C)(=O)=O)c2)N=C(c2ccccc2)c2ccccc21 | 2240 | 2060 |  | 
CN1C(=O)[C@@H](NC(=O)[C@H](CCC(F)(F)F)[C@@H](C(N)=O)c2cccc(OC(F)(F)F)c2)N=C(c2ccccc2)c2ccccc21 | 4 | 3 |  | 
CN1C(=O)[C@@H](NC(=O)[C@H](CCC(F)(F)F)[C@@H](C(N)=O)c2cccc(C(F)(F)F)c2)N=C(c2ccccc2)c2ccccc21 | 2 | 1 |  | 
